Patent publication US20180064153A1, “Methods of Protecting Against Brain Injury” (priority 2016, published 2018)

Tested on: rats exposed to a low-pressure blast wave
Conditions: 30 days supplementation, 33/49

## NCCC(=O)O [BA, beta-alanine]
  prevalence of well-adapted animals: 67%
